Patent publication US10800806B2, “Sterol derivatives and use thereof for treating diseases involving transformed astrocyte cells or for treating malignant haemopathies” (BETA INNOV, priority 2012, dated 2020)

Test system: breast cancer cells (ATCC-HTB-19)
Assay: Activity in vitro on breast cancer cells
Assay type: cell-based, human
Details: 30 μM, ethanolic form
Experimental: They were obtained from ATCC (ref. ATCC-HTB-19). The culture medium is the same as that used for the liver cancer lines. The doubling time is 20 h. • Colon carcinoma (line HT29/219)
The cancer cells used are from liver (ref. ATCC-HB-8065), prostate (ref. ATCC-HTB-81), breast (ref. ATCC-HTB-19) cancer cells, and from colon cancer cells (ECACC-HT29/219) of human origin, mentioned above.

In the case of `CC(=O)OC1C=C2CC(OC(=O)C3COC(C)(C)O3)CCC2(C)C2CCC3(C)C(C(C)CCCC(C)C)CCC3C12` (stereo not shown) [Molecule 2.b, 7-acetoxy-10,13-dimethyl-17-(6-methylheptan-2-yl)-2,3,4,7,8,9,10,11,12,13,14,15,16,17-tetradecahydro-1H-cyclopenta[a]phenanthren-3-yl 2,2-dimethyl-1,3-dioxolane-4-carboxylate], the “effect on cellular division and respiration” value is reported as “no effect”.
